Test results published in patent US8450332B2, “LIMK2 inhibitors, compositions comprising them, and methods of their use” (Lexicon Pharmaceuticals, Inc., priority 2008, dated 2013).

Molecular target: T1, LIMK2 (Homo sapiens, UniProt P53671)
T1 construct: His tag (histidine-tagged; pFastBacHT vector); made in house; host or cells: Sf9 insect cells (BAC-to-BAC baculovirus system)
Test: In vitro LIMK2 inhibition assay (33P incorporation into myelin basic protein flash plates)
Assay type: biochemical
Procedure: Using the procedures described herein and methods known in the art, the additional compounds listed below in Table 1 were prepared. The LIMK2 IC50 data that is provided below for some of the compounds was determined using the assay described in Example 32.
An in vitro assay used to identify LIMK2 inhibitors was developed. The analytical readout was the incorporation of ^33P from ATP substrate into immobilized myelin basic protein coated flash plates (Perkin Elmer Biosciences), which were counted on a scintillation counter equipped with a plate reader (TopCount, Packard Bioscience, Meriden, Conn.). Using 384 well flat MBP flashplates, total assay volume was 50 μl. The HTS program utilized a Biomek FX for dilution.
For each assay, the ingredients and conditions were as follows: 200 ng of enzyme was incubated in assay buffer (1× assay buffer contains 30 mM HEPES (pH 8.0), 5 mM DTT, and 10 mM MgCl2), 10 μM ATP, 0.2 μCi [gamma-^33P]-ATP and 10 μM of potential inhibitory compound. The reaction was incubated at room temperature for 60 minutes, washed 3 times with 75 μl of stop/wash buffer (1× stop/was buffer contains 50 mM EDTA and 20 mM Tris (pH 7.4)), and then the plates were read on the scintillation counter. Different concentrations of staurosporine (400 nM, 200 nM, 100 nM and 50 nM; purchased from BIOMOL (Plymouth Meeting, Pa.)) were used as controls on each plate.

T1 sequence (P53671 whole entry): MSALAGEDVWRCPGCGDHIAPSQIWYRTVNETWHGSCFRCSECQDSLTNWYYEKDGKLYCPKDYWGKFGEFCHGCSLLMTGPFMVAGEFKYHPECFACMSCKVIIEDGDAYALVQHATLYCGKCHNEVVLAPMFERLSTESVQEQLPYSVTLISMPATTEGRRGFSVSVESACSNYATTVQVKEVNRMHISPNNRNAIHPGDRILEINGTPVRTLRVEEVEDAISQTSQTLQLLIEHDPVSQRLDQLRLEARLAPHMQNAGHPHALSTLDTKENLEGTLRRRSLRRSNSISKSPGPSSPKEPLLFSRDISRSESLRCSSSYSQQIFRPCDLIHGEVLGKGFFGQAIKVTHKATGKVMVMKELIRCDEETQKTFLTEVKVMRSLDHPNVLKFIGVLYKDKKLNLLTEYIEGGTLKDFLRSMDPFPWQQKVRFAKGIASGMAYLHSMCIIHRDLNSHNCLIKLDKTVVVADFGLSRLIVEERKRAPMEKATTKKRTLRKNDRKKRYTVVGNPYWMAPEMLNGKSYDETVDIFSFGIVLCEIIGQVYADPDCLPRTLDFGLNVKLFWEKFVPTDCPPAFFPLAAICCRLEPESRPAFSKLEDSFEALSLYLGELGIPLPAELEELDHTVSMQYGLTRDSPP

IC50 [nM] | Compound
< 250 | Cc1c[nH]c2ncnc(N3CCC(CN)(C(=O)Nc4cccc(C#N)c4)CC3)c12 [4-(aminomethyl)-N-(3-cyanophenyl)-1-(5-methyl-7H-pyrrolo[2,3-d]pyrimidin-4-yl)piperidine-4-carboxamide]
< 250 | Cc1c[nH]c2ncnc(N3CCC(C)(C(=O)Nc4cccc(Oc5ccc(F)cc5)c4)CC3)c12 [N-(3-(4-fluorophenoxy)phenyl)-4-methyl-1-(5-methyl-7H-pyrrolo[2,3-d]pyrimidin-4-yl)piperidine-4-carboxamide]
< 250 | Cc1cccc(NC(=O)C2(C)CCN(c3ncnc4[nH]cc(C)c34)CC2)c1 [4-methyl-1-(5-methyl-7H-pyrrolo[2,3-d]pyrimidin-4-yl)-N-m-tolylpiperidine-4-carboxamide]
< 250 | Cc1c[nH]c2ncnc(N3CCC(C)(C(=O)Nc4cccc(C(F)(F)F)c4)CC3)c12 [4-methyl-1-(5-methyl-7H-pyrrolo[2,3-d]pyrimidin-4-yl) N-(3-(trifluoromethyl)phenyl)piperidine-4-carboxamide]
< 250 | Cc1c[nH]c2ncnc(N3CCC(CN)(C(=O)Nc4cccc(C(F)(F)F)c4)CC3)c12 [4-(aminomethyl)-1-(5-methyl-7H-pyrrolo[2,3-d]pyrimidin-4-yl)-N-(3-(trifluoromethyl)phenyl)piperidine-4-carboxamide]
< 250 | COc1ccc(NC(=O)C2(C)CCN(c3ncnc4[nH]cc(C)c34)CC2)cc1 [N-(4-methoxyphenyl)-4-methyl-1-(5-methyl-7H-pyrrolo[2,3-d]pyrimidin-4-yl)piperidine-4-carboxamide]
< 250 | Cc1c[nH]c2ncnc(N3CCC(C)(C(=O)Nc4cccc(OC(=O)N5CCOCC5)c4)CC3)c12 [3-(4-methyl-1-(5-methyl-7H-pyrrolo[2,3-d]pyrimidin-4-yl)piperidine-4-carboxamido)phenyl morpholine-4-carboxylate]
< 250 | Cc1c[nH]c2ncnc(N3CCC(C)(C(=O)Nc4cccc(NC(=O)C(C)C)c4)CC3)c12 [N-(3-isobutyramidophenyl)-4-methyl-1-(5-methyl-7H-pyrrolo[2,3-d]pyrimidin-4-yl)piperidine-4-carboxamide]
< 250 | Cc1c[nH]c2ncnc(N3CCC(C)(C(=O)Nc4cccc(CC(=O)N(C)C)c4)CC3)c12 [N-(3-(2-(dimethylamino)-2-oxoethyl)phenyl)-4-methyl-1-(5-methyl-7H-pyrrolo[2,3-d]pyrimidin-4-yl)piperidine-4-carboxamide]
< 250 | Cc1c[nH]c2ncnc(N3CCC(CN)(C(=O)Nc4cccc(OCC(=O)N(C)C)c4)CC3)c12 [4-(aminomethyl)-N-(3-(2-(dimethylamino)-2-oxoethoxy)phenyl)-1-(5-methyl-7H-pyrrolo[2,3-d]pyrimidin-4-yl)piperidine-4-carboxamide]
< 250 | Cc1c[nH]c2ncnc(N3CCC(CN)(C(=O)Nc4cccc(O)c4)CC3)c12 [4-(aminomethyl)-N-(3-hydroxyphenyl)-1-(5-methyl-7H-pyrrolo[2,3-d]pyrimidin-4-yl)piperidine-4-carboxamide]
< 250 | C=CCC1(C(=O)Nc2cccc(F)c2)CCN(c2ncnc3[nH]cc(C)c23)CC1 [4-allyl-N-(3-fluorophenyl)-1-(5-methyl-7H-pyrrolo[2,3-d]pyrimidin-4-yl)piperidine-4-carboxamide]
< 250 | C=CCC1(C(=O)Nc2cccc(OC)c2)CCN(c2ncnc3[nH]cc(C)c23)CC1 [4-allyl-N-(3-methoxyphenyl)-1-(5-methyl-7H-pyrrolo[2,3-d]pyrimidin-4-yl)piperidine-4-carboxamide]
< 250 | Cc1c[nH]c2ncnc(N3CCC(CN)(C(=O)Nc4cccc(C(=O)NC(C)C)c4)CC3)c12 [4-(aminomethyl)-N-(3-(isopropylcarbamoyl)phenyl)-1-(5-methyl-7H-pyrrolo[2,3-d]pyrimidin-4-yl)piperidine-4-carboxamide]
< 250 | Cc1c[nH]c2ncnc(N3CCC(CN)(C(=O)Nc4cccc(OC(C)C)c4)CC3)c12 [4-(aminomethyl)-N-(3-isopropoxyphenyl)-1-(5-methyl-7H-pyrrolo[2,3-d]pyrimidin-4-yl)piperidine-4-carboxamide]
< 250 | C=CCC1(C(=O)Nc2cccc(Oc3ccc(F)cc3)c2)CCN(c2ncnc3[nH]cc(C)c23)CC1 [4-allyl-N-(3-(4-fluorophenoxy)phenyl)-1-(5-methyl-7H-pyrrolo[2,3-d]pyrimidin-4-yl)piperidine-4-carboxamide]
< 500 | Cc1c[nH]c2ncnc(N3CCC(CN)(C(=O)Nc4ccc5nc(N(C)C)oc5c4)CC3)c12 [4-(aminomethyl)-N-(2-(dimethylamino)benzo[d]oxazol-6-yl)-1-(5-methyl-7H-pyrrolo[2,3-d]pyrimidin-4-yl)piperidine-4-carboxamide]

Compound | IC50 [nM]
Cc1c[nH]c2ncnc(N3CCC(CNC(=O)CN(C)C)(C(=O)Nc4cccc(OC(=O)N(C)C)c4)CC3)c12 [3-(4-((2-(dimethylamino)acetamido)methyl)-1-(5-methyl-7H-pyrrolo[2,3-d]pyrimidin-4-yl)piperidine-4-carboxamido)phenyl dimethylcarbamate] | < 250
Cc1c[nH]c2ncnc(N3CCC(CNS(=O)(=O)N(C)C)(C(=O)Nc4cccc(OC(=O)N(C)C)c4)CC3)c12 [3-(4-((N,N-dimethylsulfamoylamino)methyl)-1-(5-methyl-7H-pyrrolo[2,3-d]pyrimidin-4-yl)piperidine-4-carboxamido)phenyl dimethylcarbamate] | < 250
COCCC(=O)NCC1(C(=O)Nc2cccc(OC(=O)N(C)C)c2)CCN(c2ncnc3[nH]cc(C)c23)CC1 [3-(4-((3-methoxypropanamido)methyl)-1-(5-methyl-7H-pyrrolo[2,3-d]pyrimidin-4-yl)piperidine-4-carboxamido)phenyl dimethylcarbamate] | < 250
Cc1c[nH]c2ncnc(N3CCC(NCCN)(C(=O)Nc4cccc(OC(=O)N(C)C)c4)CC3)c12 [3-(4-(2-aminoethylamino)-1-(5-methyl-7H-pyrrolo[2,3-d]pyrimidin-4-yl)piperidine-4-carboxamido)phenyl dimethylcarbamate] | < 250
CCCC1(C(=O)Nc2cccc(OC(=O)N(C)C)c2)CCN(c2ncnc3[nH]cc(C)c23)CC1 [3-(1-(5-methyl-7H-pyrrolo[2,3-d]pyrimidin-4-yl)-4-propylpiperidine-4-carboxamido)phenyl dimethylcarbamate] | < 250
Cc1c[nH]c2ncnc(N3CCC(NCCNC(=O)OC(C)(C)C)(C(=O)Nc4cccc(OC(=O)N(C)C)c4)CC3)c12 [3-(4-(2-(tert-butoxycarbonylamino)ethylamino)-1-(5-methyl-7H-pyrrolo[2,3-d]pyrimidin-4-yl)piperidine-4-carboxamido)phenyl dimethylcarbamate] | < 250
Cc1c[nH]c2ncnc(N3CCC(CNC(=O)C(C)(CO)CO)(C(=O)Nc4cccc(OC(=O)N(C)C)c4)CC3)c12 [3-(4-((3-hydroxy-2-(hydroxymethyl)-2-methylpropanamido)methyl)-1-(5-methyl-7H-pyrrolo[2,3-d]pyrimidin-4-yl)piperidine-4-carboxamido)phenyl dimethylcarbamate] | < 250
Cc1c[nH]c2ncnc(N3CCC(CN)(C(=O)Nc4cccc(OC(=O)N5CCCC5)c4)CC3)c12 [3-(4-(aminomethyl)-1-(5-methyl-7H-pyrrolo[2,3-d]pyrimidin-4-yl)piperidine-4-carboxamido)phenyl pyrrolidine-1-carboxylate] | < 250
